Values of other authors in patent US11317628B2, “Microparticle compositions comprising saflufenacil” (BASF Agro B.V., priority 2015, dated 2022).

Details: background statement

CC(C)N(C)S(=O)(=O)NC(=O)c1cc(-n2c(=O)cc(C(F)(F)F)n(C)c2=O)c(F)cc1Cl [Saflufenacil, 2-chloro-5-[3,6-dihydro-3-methyl-2,6-dioxo-4-(trifluoromethyl)-1-(2H)pyrimidinyl]-4-fluoro-N-[[methyl(1-methylethyl)amino]sulfonyl]benzamide]
Solubility in water: only sparingly soluble in water
